System: 266295-075-R-J1-PDC spheroid viability
Assay: Anticancer human tumor 266295-075-R-J1-PDC patient-derived head and neck squamous carcinoma cell line growth inhibition [POLQ]
Conditions: spheroids with HUVEC and MSC; for IC50: curve of first compound; for viability, T/C: stronger effect = lower value
Procedure, shortened: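 Complex spheroid viability model combining PDC tumour cells with endothelial (HUVEC) and MSC stromal cells. Novobiocin, ART-558 or RP6685 were tested singly and in combination with standard and investigational anticancer drugs. Each was titrated in half-log steps from near clinical Cmax, or from 10 microM where Cmax was unknown.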

[1] = second compound 0.0316 µM, first compound 0.0316 µM
[2] = second compound 0.0316 µM, first compound 0.1 µM
[3] = second compound 0.0316 µM, first compound 0.316 µM
[4] = second compound 0.0316 µM, first compound 1 µM
[5] = second compound 0.0316 µM, first compound 3.16 µM
[6] = second compound 0.0316 µM, first compound 10 µM
[7] = second compound 0.1 µM, first compound 0.0316 µM
[8] = second compound 0.1 µM, first compound 0.1 µM
[9] = second compound 0.1 µM, first compound 0.316 µM
[10] = second compound 0.1 µM, first compound 1 µM
[11] = second compound 0.1 µM, first compound 3.16 µM
[12] = second compound 0.1 µM, first compound 10 µM
[13] = second compound 0.316 µM, first compound 0.0316 µM
[14] = second compound 0.316 µM, first compound 0.1 µM
[15] = second compound 0.316 µM, first compound 0.316 µM
[16] = second compound 0.316 µM, first compound 1 µM
[17] = second compound 0.316 µM, first compound 3.16 µM
[18] = second compound 0.316 µM, first compound 10 µM
[19] = second compound 1 µM, first compound 0.0316 µM
[20] = second compound 1 µM, first compound 0.1 µM
[21] = second compound 1 µM, first compound 0.316 µM
[22] = second compound 1 µM, first compound 1 µM
[23] = second compound 1 µM, first compound 3.16 µM
[24] = second compound 1 µM, first compound 10 µM
[25] = second compound 3.16 µM, first compound 0.0316 µM
[26] = second compound 3.16 µM, first compound 0.1 µM
[27] = second compound 3.16 µM, first compound 0.316 µM
[28] = second compound 3.16 µM, first compound 1 µM
[29] = second compound 3.16 µM, first compound 3.16 µM
[30] = second compound 3.16 µM, first compound 10 µM
[31] = second compound 10 µM, first compound 0.0316 µM
[32] = second compound 10 µM, first compound 0.1 µM
[33] = second compound 10 µM, first compound 0.316 µM
[34] = second compound 10 µM, first compound 1 µM
[35] = second compound 10 µM, first compound 3.16 µM
[36] = second compound 10 µM, first compound 10 µM
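Also: spheroids exposed to compounds for seven days before readout.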

`O=C(c1cc(Cc2n[nH]c(=O)c3ccccc23)ccc1F)N1CCN(C(=O)C2CC2)CC1` + COC1C(OC(N)=O)C(O)C(Oc2ccc3c(O)c(NC(=O)c4ccc(O)c(CC=C(C)C)c4)c(=O)oc3c2C)OC1(C)C was tested. Which IC50 (second compound 0.0316 µM) did it give?
The IC50 was greater than 10 µM.

And the IC50 (second compound 0.1 µM)?
The IC50 was greater than 10 µM.

What about the IC50 (second compound 0.316 µM) of the same compound?
Its IC50 is greater than 10 µM.

What about the IC50 (second compound 1 µM) of the same compound?
The IC50 was greater than 10 µM.

And the IC50 (second compound 3.16 µM)?
Its IC50 is greater than 10 µM.

What about the IC50 (second compound 10 µM) of the same compound?
Its IC50 is greater than 10 µM.

What about the viability, T/C [1] of the same compound?
Its viability, T/C is 84.6%.

What about the viability, T/C [2] of the same compound?
The viability, T/C was 107%.

What about the viability, T/C [3] of the same compound?
Its viability, T/C is 84.8%.

And the viability, T/C [4]?
Its viability, T/C is 110%.

What about the viability, T/C [5] of the same compound?
Its viability, T/C is 87.7%.

What about the viability, T/C [6] of the same compound?
The viability, T/C was 97.9%.

And the viability, T/C [7]?
Its viability, T/C is 89.2%.

And the viability, T/C [8]?
Its viability, T/C is 114%.

What about the viability, T/C [9] of the same compound?
The viability, T/C was 89.9%.

What about the viability, T/C [10] of the same compound?
Its viability, T/C is 93.7%.

And the viability, T/C [11]?
Its viability, T/C is 98.6%.

What about the viability, T/C [12] of the same compound?
The viability, T/C was 84.6%.

What about the viability, T/C [13] of the same compound?
Its viability, T/C is 101%.

What about the viability, T/C [14] of the same compound?
Its viability, T/C is 99.8%.

And the viability, T/C [15]?
The viability, T/C was 88.9%.

And the viability, T/C [16]?
The viability, T/C was 99.8%.

And the viability, T/C [17]?
Its viability, T/C is 93.6%.

What about the viability, T/C [18] of the same compound?
The viability, T/C was 80%.

And the viability, T/C [19]?
Its viability, T/C is 98.1%.

And the viability, T/C [20]?
Its viability, T/C is 89.8%.

What about the viability, T/C [21] of the same compound?
The viability, T/C was 88.1%.

What about the viability, T/C [22] of the same compound?
Its viability, T/C is 82.3%.

What about the viability, T/C [23] of the same compound?
The viability, T/C was 83.5%.

And the viability, T/C [24]?
Its viability, T/C is 90.9%.

What about the viability, T/C [25] of the same compound?
The viability, T/C was 96.6%.

And the viability, T/C [26]?
Its viability, T/C is 103%.

What about the viability, T/C [27] of the same compound?
Its viability, T/C is 104%.

And the viability, T/C [28]?
Its viability, T/C is 83.8%.

And the viability, T/C [29]?
The viability, T/C was 100%.

And the viability, T/C [30]?
The viability, T/C was 102%.

What about the viability, T/C [31] of the same compound?
Its viability, T/C is 106%.

What about the viability, T/C [32] of the same compound?
Its viability, T/C is 89.7%.

What about the viability, T/C [33] of the same compound?
The viability, T/C was 90.8%.

What about the viability, T/C [34] of the same compound?
The viability, T/C was 89.4%.

And the viability, T/C [35]?
Its viability, T/C is 112%.

And the viability, T/C [36]?
Its viability, T/C is 81.4%.

How did the IC50 (second compound 0.0316 µM) turn out when `CNCc1ccc(-c2[nH]c3cc(F)cc4c3c2CCNC4=O)cc1` + COC1C(OC(N)=O)C(O)C(Oc2ccc3c(O)c(NC(=O)c4ccc(O)c(CC=C(C)C)c4)c(=O)oc3c2C)OC1(C)C was run?
The IC50 was greater than 10 µM.

What about the IC50 (second compound 0.1 µM) of the same compound?
Its IC50 is greater than 10 µM.

And the IC50 (second compound 0.316 µM)?
Its IC50 is greater than 10 µM.

What about the IC50 (second compound 1 µM) of the same compound?
Its IC50 is greater than 10 µM.

And the IC50 (second compound 3.16 µM)?
The IC50 was greater than 10 µM.

What about the IC50 (second compound 10 µM) of the same compound?
The IC50 was greater than 10 µM.

What about the viability, T/C [1] of the same compound?
The viability, T/C was 95.1%.

And the viability, T/C [2]?
Its viability, T/C is 79.6%.

What about the viability, T/C [3] of the same compound?
Its viability, T/C is 86.8%.

And the viability, T/C [4]?
The viability, T/C was 78.3%.

And the viability, T/C [5]?
The viability, T/C was 83.8%.

What about the viability, T/C [6] of the same compound?
Its viability, T/C is 98.2%.

And the viability, T/C [7]?
The viability, T/C was 90.2%.

And the viability, T/C [8]?
The viability, T/C was 85.1%.

What about the viability, T/C [9] of the same compound?
Its viability, T/C is 97.2%.

What about the viability, T/C [10] of the same compound?
The viability, T/C was 86.9%.

What about the viability, T/C [11] of the same compound?
Its viability, T/C is 91.3%.

What about the viability, T/C [12] of the same compound?
The viability, T/C was 99%.

And the viability, T/C [13]?
Its viability, T/C is 111%.

What about the viability, T/C [14] of the same compound?
Its viability, T/C is 83.3%.

And the viability, T/C [15]?
Its viability, T/C is 93.1%.

What about the viability, T/C [16] of the same compound?
The viability, T/C was 91.5%.

And the viability, T/C [17]?
The viability, T/C was 108%.

What about the viability, T/C [18] of the same compound?
Its viability, T/C is 114%.

And the viability, T/C [19]?
Its viability, T/C is 92.8%.

What about the viability, T/C [20] of the same compound?
The viability, T/C was 92.4%.

What about the viability, T/C [21] of the same compound?
The viability, T/C was 90.5%.

And the viability, T/C [22]?
The viability, T/C was 83.7%.

What about the viability, T/C [23] of the same compound?
Its viability, T/C is 107%.

What about the viability, T/C [24] of the same compound?
The viability, T/C was 105%.

What about the viability, T/C [25] of the same compound?
The viability, T/C was 97.7%.

What about the viability, T/C [26] of the same compound?
The viability, T/C was 85.5%.

And the viability, T/C [27]?
The viability, T/C was 92.1%.

And the viability, T/C [28]?
The viability, T/C was 81%.

And the viability, T/C [29]?
The viability, T/C was 108%.

And the viability, T/C [30]?
Its viability, T/C is 115%.

And the viability, T/C [31]?
Its viability, T/C is 94.2%.

What about the viability, T/C [32] of the same compound?
The viability, T/C was 82.5%.

And the viability, T/C [33]?
The viability, T/C was 96.7%.

What about the viability, T/C [34] of the same compound?
Its viability, T/C is 101%.

And the viability, T/C [35]?
The viability, T/C was 113%.

And the viability, T/C [36]?
Its viability, T/C is 105%.

What does the source list for `CC1COCCN1c1cc(C2(O)CC3CCC(C2)O3)c2cnn(-c3ccn[nH]3)c2n1` (stereo unspecified) + Cc1cccc(N(C)C(=O)C2C(O)CCN2c2nc(C)cc(C(F)(F)F)c2C#N)c1?
IC50 (second compound 0.0316 µM): 0.839 µM; IC50 (second compound 0.1 µM): 0.872 µM; IC50 (second compound 0.316 µM): 0.92 µM; IC50 (second compound 1 µM): 0.568 µM; IC50 (second compound 3.16 µM): 0.86 µM; IC50 (second compound 10 µM): 0.97 µM; viability, T/C [1]: 84%; viability, T/C [2]: 74.1%; viability, T/C [3]: 61.3%; viability, T/C [4]: 47%; viability, T/C [5]: 36.8%; viability, T/C [6]: 25%; viability, T/C [7]: 86%; viability, T/C [8]: 69.1%; viability, T/C [9]: 76.2%; viability, T/C [10]: 46%; viability, T/C [11]: 37.5%; viability, T/C [12]: 29.7%; viability, T/C [13]: 82.1%; viability, T/C [14]: 74.1%; viability, T/C [15]: 60.6%; viability, T/C [16]: 49%; viability, T/C [17]: 37.6%; viability, T/C [18]: 26.3%; viability, T/C [19]: 94.1%; viability, T/C [20]: 63.6%; viability, T/C [21]: 58.4%; viability, T/C [22]: 45.9%; viability, T/C [23]: 40%; viability, T/C [24]: 26.1%; viability, T/C [25]: 89.5%; viability, T/C [26]: 74%; viability, T/C [27]: 60.3%; viability, T/C [28]: 51.5%; viability, T/C [29]: 34.5%; viability, T/C [30]: 31.1%; viability, T/C [31]: 114%; viability, T/C [32]: 88.8%; viability, T/C [33]: 69.1%; viability, T/C [34]: 49.4%; viability, T/C [35]: 35.2%; viability, T/C [36]: 28.1%

Source: PubChem BioAssay AID1963853 (Molecular Pharmacology Branch, DTP, NCI, 2024)
